The values that follow come from PMC10823514, “Target Identification of a Class of Pyrazolone Protein Aggregation Inhibitor Therapeutics for Amyotrophic Lateral Sclerosis” (ACS Central Science, 2023).

The data set concerns the target T1, 14-3-3-E (Rattus norvegicus, UniProt P62260).
T1 construct: isothermal dose–response (ITDR) CETSA curve of 14-3-3-E at 63 °C (B) in PC12^G93A cell lysate; endogenous in cells; host or cells: PC12-SOD1^G93A YFP cell lysate (freeze/thaw)
T1 sequence (P62260 1-255): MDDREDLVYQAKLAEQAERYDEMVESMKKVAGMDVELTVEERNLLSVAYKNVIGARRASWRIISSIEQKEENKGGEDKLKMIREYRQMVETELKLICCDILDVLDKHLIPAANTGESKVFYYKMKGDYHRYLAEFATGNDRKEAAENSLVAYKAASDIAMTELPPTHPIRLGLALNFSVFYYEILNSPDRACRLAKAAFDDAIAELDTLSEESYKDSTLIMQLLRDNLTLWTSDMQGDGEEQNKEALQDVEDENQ
Description: Cellular thermal shift assay (CETSA) in PC12^G93A cell lysate. To be noted: n = 3. The data set is classed as binding. How it is done:
Before the experiments were initiated, PC12-SOD1^G93A YFP cells were maintained in DMEM high-glucose media supplemented with 10% horse serum, 5% Tet-approved FBS, 1% Pen-strep, 1X L-glutamine, 200 μg/mL hygromycin, and 100 μg/mL G418. On the day preceding the experiments, the cells were plated onto two separate 10 cm dishes at a concentration of 10 × 10^6 cells per 10 mL of the supplemented media. They were then incubated overnight at 37 °C in a CO2 incubator (5% CO2) until they achieved 90–95% confluency.
The cell medium was subsequently removed, and the cells were rinsed with 1X PBS before being detached using 1 mL of 1X trypsin. To this, 5 mL of 1X PBS solution was added, and the cells were then resuspended, transferred to two separate 15 mL conical tubes, and centrifuged at 1100 rpm for 3 min. The supernatant was discarded, and the cells were resuspended in 1 mL of 1X PBS containing a […] (EDTA-free) (Sigma-Aldrich, 1:100 v/v). […]
SDS PAGE was conducted using a 15-well Novex Bis-Tris 4–12% prepacked gel and 1X MES-SDS gel running buffer (comprising 50 mM MES, 50 mM Tris, 1 mM EDTA, and 0.1% SDS) at a constant voltage of […] over a duration of 2 h. […] These raw immunoblot images were analyzed by using ImageJ software. Data (expressed as relative band intensity %) were normalized relative to the samples that were incubated at the lowest temperature. […]

Take `O=c1cc(COc2cc(Cl)cc(Cl)c2)[nH][nH]1` [P2]: for the setting “500 μM P2, cell lysate, difference between 60 and 64 °C, maximum at 63 °C”, the “CETSA melting curve: 14-3-3-E in the soluble fraction versus DMSO control” value is reported as “markedly reduced the presence of 14-3-3-E in the soluble fraction”. For the same molecule, the “ITDR CETSA: relative band intensity of 14-3-3-E in the soluble fraction” value (63 °C, increasing concentrations, cell lysate) is “clear decrease in the relative band intensity of 14-3-3-E”.
